Measurements published in patent US8232283B2, “Raf inhibitors” (Forma Therapeutics, Inc., priority 2008, dated 2012).

Assays:
A-431 [B-Raf wildtype] = experiment: Anti-proliferative activity, SRB assay, 72 hours; assay type: cell-based; conditions: Homo sapiens, read-out: CELLULAR IC50 [μM] A-431 [B-Raf wildtype]
Description: (§1) Cells were exposed to the test compounds at various concentrations appropriate to determine an IC50, for 72 hours, and cell proliferation was measured using the SRB assay according to Shekan et al (J Natl Cancer Inst (1990) 82, 1107-112) in order to estimate the IC50 values shown in Table 3.
(§2) Briefly, cells were plated in 96 well dishes 24 hours prior to compound addition at the densities specified in Table 11.1.
(§3) The assay was terminated with the addition of ice cold 10% TCA after growth medium has been removed and the plates were incubated over night at 4° C. The plates were then washed 5 times with water and 100 μl of a Sulforhodamine B solution ([…]) was added to each well. The plates were then incubated for 10 minutes at room temperature before removal of unbound dye by washing with 1% acetic acid. The bound dye was solubilized with 10 mM Trizma base and the absorbance read at OD520.
(§4) Inhibitory activity of the compounds was calculated as % inhibition of cell proliferation compared to cells treated with the solvent (DMSO).

[1] = test system: HT-29 [B-Raf V600E mutant]; experiment: Anti-proliferative activity, SRB assay, 72 hours; assay type: cell-based; conditions: Homo sapiens, read-out: CELLULAR IC50 [μM] HT-29 [B-Raf V600E mutant]
Description: We observed the surprising finding that compounds of the invention were useful in inhibiting proliferation of HT-29 tumor cells (see Table 3).
as §1, §2, §3, §4

Row | IC50 (A-431 [B-Raf wildtype]) | IC50 [1] | SMILES
1 | < 10 µM | < 5 µM | COn1c(=O)c(-c2ccc(NC(=O)c3cc(C(C)(C)C)nn3-c3ccccc3)cc2Cl)cc2cnc(NCCN(C)C)nc21 [Compound 56, 5-tert-Butyl-2-phenyl-2H-pyrazole-3-carboxylic acid {3-chloro-4-[2-(2-dimethylamino-ethylamino)-8-methoxy-7-oxo-7,8-dihydro-pyrido[2,3-d]pyrimidin-6-yl]-phenyl}-amide]
2 | > 10 µM | < 5 µM | CCNc1cc(C(=O)Nc2ccc(Cl)c(-c3cc4cnc(NCCN(C)C)nc4n(OC)c3=O)c2)cc(Cl)n1 [Compound 63, 2-Chloro-N-(4-chloro-3-(2-(2-(dimethylamino)ethylamino)-8-methoxy-7-oxo-7,8-dihydropyrido[2,3-d]pyrimidin-6-yl)phenyl)-6-ethylamino-isonicotinamide]
3 | > 10 µM | > 10 µM | COn1c(=O)c(-c2cc(NC(=O)c3nc4ccc(F)cc4[nH]3)ccc2Cl)cc2cnc(NCCN(C)C)nc21 [Compound 40, 6-Fluoro-1H-benzoimidazole-2-carboxylic acid {4-chloro-3-[2-(2-dimethylamino-ethylamino)-8-methoxy-7-oxo-7,8-dihydro-pyrido[2,3-d]pyrimidin-6-yl]-phenyl}-amide]
4 | < 10 µM | < 5 µM | COn1c(=O)c(-c2cc(NC(=O)c3cc(Cl)nc(N4CCCCC4)c3)ccc2Cl)cc2cnc(NCCN(C)C)nc21 [Compound 60, 2-Chloro-N-(4-chloro-3-(2-(2-(dimethylamino)ethylamino)-8-methoxy-7-oxo-7,8-dihydropyrido[2,3-d]pyrimidin-6-yl)phenyl)-6-pyperidin-1-yl-isonicotinamide]
5 | < 10 µM | < 5 µM | COn1c(=O)c(-c2cc(NC(=O)c3cc(Cl)nc(N4CCCC4)c3)ccc2Cl)cc2cnc(NCCN(C)C)nc21 [Compound 58, 2-Chloro-N-(4-chloro-3-(2-(2-(dimethylamino)ethylamino)-8-methoxy-7-oxo-7,8-dihydropyrido[2,3-d]pyrimidin-6-yl)phenyl)-6-pyrrolidin-1-yl-isonicotinamide]
6 | > 10 µM | < 10 µM | COn1c(=O)c(-c2cc(NC(=O)c3cc(Cl)nc(Cl)c3)ccc2Cl)cc2cnc(NCCN(C)C)nc21 [Compound 7, 2,6-Dichloro-N-(4-chloro-3-(2-(2-(dimethylamino)ethylamino)-8-methoxy-7-oxo-7,8-dihydropyrido[2,3-d]pyrimidin-6-yl)phenyl)-isonicotinamide]
7 | > 10 µM | < 10 µM | COn1c(=O)c(-c2cc(NC(=O)c3cc(Cl)nc(NC4CCN(C)CC4)c3)ccc2Cl)cc2cnc(NCCN(C)C)nc21 [Compound 66]
8 | > 10 µM | < 5 µM | COc1cc(C(F)(F)F)ccc1C(=O)Nc1ccc(Cl)c(-c2cc3cnc(NCCN(C)C)nc3n(OC)c2=O)c1 [Compound 15, N-{4-Chloro-3-[2-(2-dimethylamino-ethylamino)-8-methoxy-7-oxo-7,8-dihydro-pyrido[2,3-d]pyrimidin-6-yl]-phenyl}-2-methoxy-4-trifluoromethyl-benzamide]
9 | > 10 µM | < 5 µM | COn1c(=O)c(-c2cc(NC(=O)Nc3ccc(Cl)cc3)ccc2Cl)cc2cnc(NCCN(C)C)nc21 [Compound 46, 1-{4-Chloro-3-[2-(2-dimethylamino-ethylamino)-8-methoxy-7-oxo-7,8-dihydro-pyrido[2,3-d]pyrimidin-6-yl]-phenyl}-3-(4-chloro-phenyl)-urea]
10 | > 10 µM | < 5 µM | COn1c(=O)c(-c2cc(NC(=O)Cc3cccc(C(F)(F)F)c3)ccc2Cl)cc2cnc(NCCN(C)C)nc21 [Compound 25, N-{4-Chloro-3-[2-(2-dimethylamino-ethylamino)-8-methoxy-7-oxo-7,8-dihydro-pyrido[2,3-d]pyrimidin-6-yl]-phenyl}-2-(3-trifluoromethyl-phenyl)-acetamide]
11 | < 10 µM | < 5 µM | COn1c(=O)c(-c2ccc(NC(=O)c3ccc(Cl)c(OC(F)(F)F)c3)cc2Cl)cc2cnc(NCCN(C)C)nc21 [Compound 52, 4-Chloro-N-{3-chloro-4-[2-(2-dimethylamino-ethylamino)-8-methoxy-7-oxo-7,8-dihydro-pyrido[2,3-d]pyrimidin-6-yl]-phenyl}-3-trifluoromethoxy-benzamide]
12 | > 10 µM | > 10 µM | COn1c(=O)c(-c2cc(NC(=O)c3ccccc3Cl)ccc2Cl)cc2cnc(NCCN(C)C)nc21 [Compound 36, 2-Chloro-N-{4-chloro-3-[2-(2-dimethylamino-ethylamino)-8-methoxy-7-oxo-7,8-dihydro-pyrido[2,3-d]pyrimidin-6-yl]-phenyl}-benzamide]
13 | > 10 µM | > 10 µM | COn1c(=O)c(-c2cc(NC(=O)c3cc(C(C)(C)C)n[nH]3)ccc2Cl)cc2cnc(NCCN(C)C)nc21 [Compound 9, 5-tert-Butyl-2H-pyrazole-3-carboxylic acid {4-chloro-3-[2-(2-dimethylamino-ethylamino)-8-methoxy-7-oxo-7,8-dihydro-pyrido[2,3-d]pyrimidin-6-yl]-phenyl}-amide]
14 | < 10 µM | < 5 µM | COn1c(=O)c(-c2cc(NC(=O)Nc3ccc(Oc4ccccc4)cc3)ccc2Cl)cc2cnc(NCCN(C)C)nc21 [Compound 45, 1-{4-Chloro-3-[2-(2-dimethylamino-ethylamino)-8-methoxy-7-oxo-7,8-dihydro-pyrido[2,3-d]pyrimidin-6-yl]-phenyl}-3-(4-phenoxy-phenyl)-urea]
15 | > 10 µM | < 10 µM | COn1c(=O)c(-c2cc(NC(=O)c3cc4ccccc4n3C)ccc2Cl)cc2cnc(NCCN(C)C)nc21 [Compound 13, 1-Methyl-1H-indole-2-carboxylic acid {4-chloro-3-[2-(2-dimethylamino-ethylamino)-8-methoxy-7-oxo-7,8-dihydro-pyrido[2,3-d]pyrimidin-6-yl]-phenyl}-amide]
16 | > 10 µM | < 10 µM | COn1c(=O)c(-c2cc(NC(=O)c3ccc(C(F)(F)F)c(F)c3)ccc2Cl)cc2cnc(NCCN(C)C)nc21 [Compound 12, N-{4-Chloro-3-[2-(2-dimethylamino-ethylamino)-8-methoxy-7-oxo-7,8-dihydro-pyrido[2,3-d]pyrimidin-6-yl]-phenyl}-3-fluoro-4-trifluoromethyl-benzamide]
17 | > 10 µM | < 5 µM | COn1c(=O)c(-c2cc(NC(=O)Nc3cc(C(F)(F)F)ccc3F)ccc2Cl)cc2cnc(NCCN(C)C)nc21 [Compound 49, 1-{4-Chloro-3-[2-(2-dimethylamino-ethylamino)-8-methoxy-7-oxo-7,8-dihydro-pyrido[2,3-d]pynmidin-6-yl]-phenyl}-3-(2-fluoro-5-trifluoromethyl-phenyl)-urea]
18 | < 10 µM | < 5 µM | COn1c(=O)c(-c2ccc(NC(=O)c3ccc(Cl)c(C(F)(F)F)c3)cc2Cl)cc2cnc(NCCN(C)C)nc21 [Compound 6, 4-Chloro-N-{3-chloro-4-[2-(2-dimethylamino-ethylamino)-8-methoxy-7-oxo-7,8-dihydro-pyrido[2,3-d]pyrimidin-6-yl]-phenyl}-3-trifluoromethyl-benzamide]
19 | > 10 µM | > 10 µM | COn1c(=O)c(-c2cc(NC(=O)c3ccc(Cl)cc3)ccc2Cl)cc2cnc(NCCN(C)C)nc21 [Compound 38, 4-Chloro-N-{4-chloro-3-[2-(2-dimethylamino-ethylamino)-8-methoxy-7-oxo-7,8-dihydro-pyrido[2,3-d]pyrimidin-6-yl]-phenyl}-benzamide]
20 | > 10 µM | < 5 µM | COc1ccc(C(F)(F)F)cc1C(=O)Nc1ccc(Cl)c(-c2cc3cnc(NCCN(C)C)nc3n(OC)c2=O)c1 [Compound 14, N-{4-Chloro-3-[2-(2-dimethylamino-ethylamino)-8-methoxy-7-oxo-7,8-dihydro-pyrido[2,3-d]pyrimidin-6-yl]-phenyl}-2-methoxy-5-trifluoromethyl-benzamide]
21 | > 10 µM | < 10 µM | COn1c(=O)c(-c2cc(NC(=O)c3ccc(C(F)(F)F)cc3)ccc2Cl)cc2cnc(NCCN(C)C)nc21 [Compound 34, N-{4-Chloro-3-[2-(2-dimethylamino-ethylamino)-8-methoxy-7-oxo-7,8-dihydro-pyrido[2,3-d]pyrimidin-6-yl]-phenyl}-4-trifluoromethyl-benzamide]
22 | > 10 µM | < 5 µM | COn1c(=O)c(-c2cc(NC(=O)c3cc(C(F)(F)F)cc(C(F)(F)F)c3)ccc2Cl)cc2cnc(NCCN(C)C)nc21 [Compound 35, N-{4-Chloro-3-[2-(2-dimethylamino-ethylamino)-8-methoxy-7-oxo-7,8-dihydro-pyrido[2,3-d]pyrimidin-6-yl]-phenyl}-3,5-bis-trifluoromethyl-benzamide]
23 | > 10 µM | < 5 µM | COn1c(=O)c(-c2cc(NC(=O)c3cc(Cl)nc(N(C)C)c3)ccc2Cl)cc2cnc(NCCN(C)C)nc21 [Compound 59, 2-Chloro-N-(4-chloro-3-(2-(2-(dimethylamino)ethylamino)-8-methoxy-7-oxo-7,8-dihydropyrido[2,3-d]pyrimidin-6-yl)phenyl)-6-dimethylamino-isonicotinamide]
24 | > 10 µM | < 5 µM | COn1c(=O)c(-c2cc(NC(=O)c3cc(Cl)nc(N4CCN(C)CC4)c3)ccc2Cl)cc2cnc(NCCN(C)C)nc21 [Compound 62, 2-Chloro-N-(4-chloro-3-(2-(2-(dimethylamino)ethylamino)-8-methoxy-7-oxo-7,8-dihydropyrido[2,3-d]pyrimidin-6-yl)phenyl)-6-(4-methyl-piperazin-1-yl)-isonicotinamide]
